Laboratory results: US5843941A, “Ras farnesyl transferase inhibitors” (Genentech, Inc., priority 1994, dated 1998)

What was measured:
[1] = system: untransformed rat-1 fibroblasts; experiment: Changes in morphology of untransformed cells; type: cell-based; details: FIG. 6E and F
Protocol: (§1) Compound 27A (denoted as BG269A in the figure) and compound 27B (denoted as BG269B in the figure) were added at 250 μM to test whether these compounds would induce reversion to a more normal phenotype as had been previously shown with microinjection of anti-Ras antibodies (see Feramisco, J. R. et al Nature 314, 639 (1985)). The H-ras transformed cells, denoted as rat 2.2 cells, were generated by transfection of rat-1 fibroblasts as described (see Seeburg, P. H., Colby, W. W., Capon, D. J., Goeddel, D. V., and Levinson, A. D. Nature 312,71 (1984)). Cells that overgrew the monolayer were extracted and plated onto agar to obtain a cell line displaying a fully transformed phenotype. Untransformed rat-1 fibroblasts and src-transformed rat-1 fibroblasts were also treated. The src-transformed cells were generated by co-transfection of rat-1 fibroblasts with pSV3.Neo.src, a vector containing the gene for src as well as the gene that confers G418 resistance, both under control of SV40 early promoters. G418-resistant cell clones that diplayed a transformed phenotype were used to generate the cell line. On day 0, cells were plated in monolayer culture at 3×10^3 cells per well (24-well plates) in 1 ml DMEM supplemented with 10% FCS, 100 U/ml penicillin, 10 μg/ml streptomycin, 2% DMSO, and 0.5 mM DTT with and without 200 μM inhibitor. On day 3, the cells were refed with the same medium. […]

[2] = system: Ras proteins in Met18b-2 cells; experiment: Incorporation of [3H]mevalonate into immunoprecipitated Ras proteins in Met18b-2 cells; type: cell-based, Chinese hamster; details: FIG. 5
Protocol: In each experiment, aliquots of the Triton X-100 fraction (300 μg protein, prepared as described above) were incubated with 1 μg anti-Ras monoclonal antibody (Oncogene Sciences, Inc.) overnight at 4° C. on a rotating platform. Immune complexes were precipitated by addition of 25 μl Protein A-agarose suspension that had been pre-coated with goat anti-rat IgG (Oncogene Sciences, Inc.) according to the manufacturer's instructions. After a 30 min incubation at 4° C., the agarose beads were pelleted by centrifugation and washed 5 times with 1 ml each of wash solution (50 mM Tris-HCl, 50 mM NaCl, 0.5% (w/v) deoxycholate, 0.5% (v/v) Nonidet P-40, and 0.1% (w/v) SDS at pH 7.5). 75 μl of 1X SDS sample buffer was added and each sample heated for 5 min at 95° C. before electrophoresis as above.

[3] = system: src-transformed rat-1 fibroblasts; experiment: Changes in morphology of src-transformed cells; type: cell-based; details: FIG. 6C/6D
Protocol: as §1

[4] = system: H-ras(Val12)-transformed rat-1 fibroblasts (rat 2.2 cells); experiment: Changes in morphology of H-ras-transformed cells; type: cell-based; details: 5 days; FIG. 6A/6B
Protocol: Compound 27A (denoted as BG269A in the figure) and compound 27B (denoted as BG269B in the figure) were added at 250 μM to test whether these compounds would induce reversion to a more normal phenotype as had been previously shown with microinjection of anti-Ras antibodies (see Feramisco, J. R. et al Nature 314, 639 (1985)). The H-ras transformed cells, denoted as rat 2.2 cells, were generated by transfection of rat-1 fibroblasts as described (see Seeburg, P. H., Colby, W. W., Capon, D. J., Goeddel, D. V., and Levinson, A. D. Nature 312,71 (1984)). Cells that overgrew the monolayer were extracted and plated onto agar to obtain a cell line displaying a fully transformed phenotype. Untransformed rat-1 fibroblasts and src-transformed rat-1 fibroblasts were also treated. The src-transformed cells were generated by co-transfection of rat-1 fibroblasts with pSV3.Neo.src, a vector containing the gene for src as well as the gene that confers G418 resistance, both under control of SV40 early promoters. G418-resistant cell clones that diplayed a transformed phenotype were used to generate the cell line. On day 0, cells were plated in monolayer culture at 3×10^3 cells per well (24-well plates) in 1 ml DMEM supplemented with 10% FCS, 100 U/ml penicillin, 10 μg/ml streptomycin, 2% DMSO, and 0.5 mM DTT with and without 200 μM inhibitor. On day 3, the cells were refed with the same medium. On day 5, the cells were photographed under contrast at a magnification of 100X. […] This change in morphology is remarkably similar to that seen following injection of anti-ras antibodies into ras-transformed cells (see Feramisco, J. R. et al Nature 314, 639 (1985)). Rat-1 fibroblasts transformed with the src oncogene also grew in a multilayered pattern (FIG. 6C), but this was not affected by compound 27A or compound 27B (FIG. 6D).

CSCC[C@H](NC(=O)CN1C(=O)C(N(C)C(=O)[C@@H](N)CS)N=C(c2ccccc2)c2ccccc21)C(=O)O (single isomer, unassigned) [27A]
effect on morphology of untransformed cells [1]: no apparent effect on the morphology of untransformed rat-1 fibroblasts
effect of control molecules on [3H]mevalonate incorporation [2]: had no effect
effect on morphology of src-transformed cells [3]: not affected
effect on transformed phenotype (morphology) [4]: had no effect
